Reference: ChEMBL document CHEMBL5537127, “Design and synthesis of novel hederagonic acid analogs as potent anti-inflammatory compounds capable of protecting against LPS-induced acute lung injury” (Eur J Med Chem, 2024)
Activity calls are given as the source filed them. The calls are words filed in the database; no cut-off is given here.

Tests used:
[1] = system: Mus musculus; experiment: Antiinflammatory activity against TPA-induced mouse ear edema model assessed as reduction in ear edema at 40 mg/kg, po administered for 7 consecutive days; assay type: functional; design: scale not given: the % may be the effect or the level left; conditions: time 7 day
[2] = Cytotoxicity against mouse RAW264.7 cells assessed as cell viability at 40 uM incubated for 24 hrs by MTT assay relative to control; assay type: toxicity, cell-based; conditions: read-out: Activity
[3] = system: RAW264.7; experiment: Anti-inflammatory activity against LPS-induced mouse RAW264.7 cells assessed as inhibition of NO production at 10 uM preincubated for 2 hrs followed by LPS addition and measured after 24 hrs by Griess reagent-based microplate reader analysis relative to control; assay type: functional; design: scale not given: the % may be the effect or the level left; conditions: time 26 hrs
[4] = system: RAW264.7; experiment: Anti-inflammatory activity against LPS-induced mouse RAW264.7 cells assessed as inhibition of NO production at 20 uM preincubated for 2 hrs followed by LPS addition and measured after 24 hrs by Griess reagent-based microplate reader analysis relative to control; assay type: functional; design: scale not given: the % may be the effect or the level left; conditions: time 26 hrs
[5] = target: T1, Stimulator of interferon genes protein (Mus musculus) (UniProt Q3TBT3); experiment: Binding affinity to STING in mouse RAW264.7 cells assessed as reduction in protein degradation at 40 uM at 40 to 61 degreeC incubated for 12 hrs by thermal shift assay; assay type: cell-based
T1 sequence (whole entry): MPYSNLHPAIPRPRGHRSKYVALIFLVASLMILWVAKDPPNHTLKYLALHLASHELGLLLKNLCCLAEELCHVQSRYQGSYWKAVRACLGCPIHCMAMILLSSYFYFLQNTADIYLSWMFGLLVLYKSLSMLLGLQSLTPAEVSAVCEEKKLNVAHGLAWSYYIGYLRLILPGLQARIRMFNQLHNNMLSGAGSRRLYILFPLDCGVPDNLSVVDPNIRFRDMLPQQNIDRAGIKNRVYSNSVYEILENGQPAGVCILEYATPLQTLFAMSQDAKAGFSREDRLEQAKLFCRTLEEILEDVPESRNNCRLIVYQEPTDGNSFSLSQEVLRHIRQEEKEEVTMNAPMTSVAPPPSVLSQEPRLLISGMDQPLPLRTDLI

[6] = target: T1, Stimulator of interferon genes protein (Mus musculus); experiment: Binding affinity to STING in mouse RAW264.7 cells assessed as protein stabilization at 49 degreeC incubated for 12 hrs by thermal shift assay; assay type: cell-based; conditions: dose 0.4-40 µM
[7] = target: T1, Stimulator of interferon genes protein (Mus musculus); experiment: Binding affinity to STING in mouse RAW264.7 cells assessed as inhibition of protein degradation at 4 to 40 uM at 49 degreeC incubated for 12 hrs by thermal shift assay; assay type: cell-based; conditions: dose 4-40 µM
[8] = system: RAW264.7; experiment: Anti-inflammatory activity against LPS-induced mouse RAW264.7 cells assessed as inhibition of p65 nuclear translocation at 5 uM preincubated for 2 hrs followed by LPS addition and measured after 2 hrs by FITC/DAPI staining based laser confocal microscopy analysis; assay type: functional, cell-based; conditions: time 4.0 hrs
[9] = system: RAW264.7; experiment: Anti-inflammatory activity against LPS-induced mouse RAW264.7 cells assessed as inhibition of IRF3 nuclear translocation at 5 uM preincubated for 2 hrs followed by LPS addition and measured after 2 hrs by FITC/DAPI staining based laser confocal microscopy analysis; assay type: functional, cell-based; conditions: time 4.0 hrs
[10] = system: RAW264.7; experiment: Anti-inflammatory activity against LPS-induced mouse RAW264.7 cells assessed as decrease in IL-6 expression at 1.25 to 5 uM preincubated for 2 hrs followed by LPS addition and measured after 12 hrs by ELISA; assay type: functional, cell-based; conditions: dose 1.25-5 µM, time 14.0 hrs
[11] = system: RAW264.7; experiment: Anti-inflammatory activity against LPS-induced mouse RAW264.7 cells assessed as decrease in TNF-alpha expression at 1.25 to 5 uM preincubated for 2 hrs followed by LPS addition and measured after 12 hrs by ELISA; assay type: functional, cell-based; conditions: dose 1.25-5 µM, time 14.0 hrs
[12] = system: RAW264.7; experiment: Anti-inflammatory activity against LPS-induced mouse RAW264.7 cells assessed as decrease in IFN-beta expression at 1.25 to 5 uM preincubated for 2 hrs followed by LPS addition and measured after 12 hrs by ELISA; assay type: functional, cell-based; conditions: dose 1.25-5 µM, time 14.0 hrs
[13] = system: RAW264.7; experiment: Anti-inflammatory activity against LPS-induced mouse RAW264.7 cells assessed as decrease in TBK1 phosphorylation at 1.25 to 5 uM by Western blotting analysis; assay type: functional, cell-based; conditions: dose 1.25-5 µM
[14] = system: RAW264.7; experiment: Anti-inflammatory activity against LPS-induced mouse RAW264.7 cells assessed as decrease in IRF3 phosphorylation at 1.25 to 5 uM by Western blotting analysis; assay type: functional, cell-based; conditions: dose 1.25-5 µM
[15] = system: RAW264.7; experiment: Anti-inflammatory activity against LPS-induced mouse RAW264.7 cells assessed as decrease in p65 phosphorylation at 1.25 to 5 uM by Western blotting analysis; assay type: functional, cell-based; conditions: dose 1.25-5 µM
[16] = system: RAW264.7; experiment: Anti-inflammatory activity against LPS-induced mouse RAW264.7 cells assessed as decrease in IkappaB phosphorylation at 1.25 to 5 uM by Western blotting analysis; assay type: functional, cell-based; conditions: dose 1.25-5 µM
[17] = system: RAW264.7; experiment: Anti-inflammatory activity against LPS-induced mouse RAW264.7 cells assessed as decrease in STING protein level at 1.25 to 5 uM by Western blotting analysis; assay type: functional, cell-based; conditions: dose 1.25-5 µM
[18] = system: Mus musculus; experiment: Anti-inflammatory activity against LPS-stimulated BALB/c mouse acute lung injury model assessed as decrease in pulmonary edema in lung tissue at 1.25 to 5 mg/kg, po administered for 3 days by hematoxylin and eosin staining based analysis; assay type: functional, organism-based; conditions: dose 1.25-5 mg/kg, time 3.0 day
[19] = system: Mus musculus; experiment: Anti-inflammatory activity against LPS-stimulated BALB/c mouse acute lung injury model assessed as decrease in MDA level in lung tissue at 1.25 to 5 mg/kg, po administered for 3 days by colorimetric method; assay type: functional, organism-based; conditions: dose 1.25-5 mg/kg, time 3.0 day
[20] = system: Mus musculus; experiment: Anti-inflammatory activity against LPS-stimulated BALB/c mouse acute lung injury model assessed as increase in SOD level in lung tissue at 1.25 to 5 mg/kg, po administered for 3 days by colorimetric method; assay type: functional, organism-based; conditions: dose 1.25-5 mg/kg, time 3.0 day
[21] = system: Mus musculus; experiment: Anti-inflammatory activity against LPS-stimulated BALB/c mouse acute lung injury model assessed as decrease in STING expression at 1.25 to 5 mg/kg, po administered for 3 days by Western blotting analysis; assay type: functional, organism-based; conditions: dose 1.25-5 mg/kg, time 3.0 day
[22] = system: Mus musculus; experiment: Anti-inflammatory activity against LPS-stimulated BALB/c mouse acute lung injury model assessed as decrease in TBK1 phosphorylation at 1.25 to 5 mg/kg, po administered for 3 days by Western blotting analysis; assay type: functional, organism-based; conditions: dose 1.25-5 mg/kg, time 3.0 day
[23] = system: Mus musculus; experiment: Anti-inflammatory activity against LPS-stimulated BALB/c mouse acute lung injury model assessed as decrease in IRF3 phosphorylation at 1.25 to 5 mg/kg, po administered for 3 days by Western blotting analysis; assay type: functional, organism-based; conditions: dose 1.25-5 mg/kg, time 3.0 day
[24] = system: Mus musculus; experiment: Anti-inflammatory activity against LPS-stimulated BALB/c mouse acute lung injury model assessed as decrease in p65 phosphorylation at 1.25 to 5 mg/kg, po administered for 3 days by Western blotting analysis; assay type: functional, organism-based; conditions: dose 1.25-5 mg/kg, time 3.0 day
[25] = system: Mus musculus; experiment: Anti-inflammatory activity against LPS-stimulated BALB/c mouse acute lung injury model assessed as decrease in IkappaB phosphorylation at 1.25 to 5 mg/kg, po administered for 3 days by Western blotting analysis; assay type: functional, organism-based; conditions: dose 1.25-5 mg/kg, time 3.0 day
[26] = system: Mus musculus; experiment: Anti-inflammatory activity against LPS-stimulated BALB/c mouse assessed as decrease in IL-6 level in BALF administered for 3 days by Western blotting analysis; assay type: functional, organism-based; conditions: dose 1.25-5 mg/kg, route po, time 3.0 day
[27] = system: Mus musculus; experiment: Anti-inflammatory activity against LPS-stimulated BALB/c mouse assessed as decrease in TNF-alpha level in BALF administered for 3 days by Western blotting analysis; assay type: functional, organism-based; conditions: dose 1.25-5 mg/kg, route po, time 3.0 day
[28] = system: Mus musculus; experiment: Anti-inflammatory activity against LPS-stimulated BALB/c mouse assessed as decrease in IFN-beta level in BALF administered for 3 days by Western blotting analysis; assay type: functional, organism-based; conditions: dose 1.25-5 mg/kg, route po, time 3.0 day

Compound: CC1(C)C(=O)/C(=C\c2cnccn2)C[C@]2(C)[C@H]3CC=C4[C@@H]5C[C@@](C)(C(=O)O)CC[C@]5(C)CC[C@@]4(C)[C@]3(C)CC[C@@H]12
- Activity [1]: 59.69%

Compound: CC1(C)CC[C@]2(C(=O)OCc3ccccc3)CC[C@]3(C)C(=CC[C@@H]4[C@@]5(C)CCC(=O)[C@@](C)(COC(=O)CCCNC(=O)CCCC[C@@H]6CCSS6)[C@@H]5CC[C@]43C)[C@@H]2C1
- viability at 24 h, 40 µM [2]: 100%
- Activity [3]: 69.78%
- Activity [4]: 81.7%
- Activity [5]: Active
- Activity [6]: Dose-Dependent Effect
- Activity [7]: Active
- Activity [8]: Active
- Activity [9]: Active
- Activity [10]: Active
- Activity [11]: Active
- Activity [12]: Active
- Activity [13]: Active
- Activity [14]: Active
- Activity [15]: Active
- Activity [16]: Active
- Activity [17]: Active
- Activity [18]: Active
- Activity [19]: Active
- Activity [20]: Active
- Activity [21]: Active
- Activity [22]: Active
- Activity [23]: Active
- Activity [24]: Active
- Activity [25]: Active
- Activity [26]: Dose-Dependent Effect
- Activity [27]: Dose-Dependent Effect
- Activity [28]: Dose-Dependent Effect
